Values after ≈ are worked out from the molar mass of the structure shown. Read-outs that look alike come from different tables or passages of the source.
Tests used:
[1] = tested on: Clostridium difficile (Clostridioides difficile), Mouse Strain VPI 10463 (ATCC 43255); assay: MIC on Clostridium difficile mouse strain VPI 10463; format: cell-based; settings: ATCC43255, 48 hours, presence/absence of growth, tested 0.015-250 μM
Experimental: Determination of Minimal Inhibitory Concentrations (MICs) of Bile Acid Derivatives on Clostridium difficile (Clostridioides difficile), Mouse Strain VPI 10463 (ATCC 43255)
Concentrations (0.015-250 μM) of test compounds are prepared by serial two-fold dilutions in pre-reduced brain heart infusion (BHI) broth. To each well containing test article, approximately 5×10^5 CFU of bacteria are added and incubated for 48 hours in an anaerobic chamber at 37° C. Following incubation, the MIC of each test article is determined by presence/absence of bacterial growth in each well.

[2] = tested on: C. diff. strain VPI 10463 (ATCC-43255) infection; assay: Recurrence model mouse of C. diff. infection; format: in vivo, C57BL/6 female mice; settings: for survival of the animals: comparison Example 3 against Example 1 (FIG. 3); for Survived / Total Deaths: Day 5 to Day 11, n 10
Experimental: The efficacy of compounds in suppressing recurrent C. diff. infection was assessed in C57BL/6 female mice. Mice were made vulnerable to C. diff. infection by administration of a cocktail of antibiotics (1% glucose, kanamycin (0.5 mg/mL), gentamicin (44 μg/mL), colistin (1062.5 U/mL), metronidazole (269 μg/mL), ciprofloxacin (156 μg/mL), ampicillin (100 μg/mL) and vancomycin (56 μg/mL)) in drinking water for a period of 9 days. 3 days prior to C. diff. infection, mice received a single dose of clindamycin (10 mg/kg) in a volume of 0.5 mL by oral gavage. After this antibiotic pre-treatment, mice received a challenge of approximately 4.5 log 10 viable spores of strain VPI 10463 (ATCC-43255) administered by oral gavage (day 0). After that mice received 50 mg/kg vancomycin from day 0 until day 4. Test articles (bile acid) and placebo were administered via oral gavage bid from day 5 through day 11. Efficacy of test articles was assessed by enumeration of survival of test animals over 15 days following C. diff, challenge and by comparison of mortality, disease severity scores and assessment of body weight against placebo treatment.

[3] = tested on: Clostridium difficile (Clostridioides difficile), Human Strain R20291, Ribotype RT027; assay: MIC on Clostridium difficile human strain R20291, ribotype RT027; format: cell-based; settings: 16 h incubation, OD600
Experimental: Determination of Minimal Inhibitory Concentrations (MICs) of Bile Acid Derivatives on Clostridium difficile (Clostridioides difficile), Human Strain R20291, Ribotype RT027, Reference DSMZ (DSM-27147)
All bacterial culturing steps and MIC experiments were performed under anoxic conditions (95% N2, 5% H2) and 37° C. in an incubator model 2002 that was placed in a Type B vinyl anaerobic chamber, both from Coy Laboratories Products. The strains were maintained as frozen stock cultures in Brain-Heart Infusion broth supplemented with […] and 1% (w/v) L-cysteine (BHIS) containing 40% (v/v) glycerine (Carl Roth GmbH, Cat. #3783.1) at −80° C. Brain-heart infusion broth (Sigma Aldrich, Cat. #53286) with the addition of with 5 g/L yeast extract (Carl Roth GmbH, Cat. #2363.5) was prepared according to the manufacturer's instructions. After heat sterilization, 1 g L-cysteine (Sigma Aldrich, Cat. #C7352) was added that was dissolved in 10 mL of distilled water (H2Odd) and filter sterilized. Medium was placed over night into the anaerobic chamber for degassing. For the MIC-assay cryo-preserved strains were streaked out on BBL™ Columbia CNA Agar with 5% Sheep Blood (BD™, Cat. #221352) and grown for 2-3 d. These plates were kept at rt in the anaerobic chamber for up to two weeks for starting fresh liquid cultures. […]

[4] = biological target: T1, vitamin D receptor (VDR; NR1I1) (Homo sapiens, UniProt P11473); assay: One-hybrid reporter assay for the vitamin D receptor; format: cell-based; settings: result in words
T1 construct: expressed in transfected cells; host or cells: HEK293
T1 sequence (P11473 88-427): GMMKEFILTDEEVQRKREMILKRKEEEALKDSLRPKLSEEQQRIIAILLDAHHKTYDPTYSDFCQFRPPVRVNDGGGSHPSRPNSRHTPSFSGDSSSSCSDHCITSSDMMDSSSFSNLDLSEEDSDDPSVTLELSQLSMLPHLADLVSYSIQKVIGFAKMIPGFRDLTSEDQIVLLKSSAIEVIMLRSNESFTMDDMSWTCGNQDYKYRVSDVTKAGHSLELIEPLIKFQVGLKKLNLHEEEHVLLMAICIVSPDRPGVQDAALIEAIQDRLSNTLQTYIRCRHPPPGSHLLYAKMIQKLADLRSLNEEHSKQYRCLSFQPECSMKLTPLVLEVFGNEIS
Experimental: The vitamin D receptor (VDR; NR1I1) reporter assay was performed by transient co-transfection of HEK293 cells with pCMV-BD (Stratagene #211342) containing the GAL4 DNA-binding domain fused with the ligand binding domain of VDR (Genbank accession no. NP_000378, aa 88-427), pFR-Luc reporter and pRL-CMV reporter (Promega #E2261) using PEI solution (Sigma Aldrich cat #40872-7) in a 96-well plate. Cells were incubated for 4-6 hours, and then cultured in MEM supplemented with 8.7% FCS, Glutamax, NEAA, sodium pyruvate and Pen/Strep in the presence of test compounds for 16-20 hours. Cells were incubated for 4 to 6 hours in 30 μL/well transfection mix in OPTIMEM and then cultured for further 16 to 20 hours after addition of 120 μL MEM supplemented with 8.7% FCS, Glutamax, NEAA, sodium pyruvate and Pen/Strep in the presence of test compounds. Medium was removed and cells were lysed with 1× Passive Lysis Buffer (Promega). Firefly luciferase buffer was then added and firefly luciferase luminescence was read on BMG LUMIstar OMEGA luminescence plate reader. One second later, renilla luciferase buffer was added and renilla luciferase luminescence was read to evaluate cell viability and to be able to normalize for well to well differences in transfection efficiency.

[5] = tested on: C. diff. strain VPI 10463 (ATCC-43255) infection; assay: Murine model of Clostridium difficile-associated disease: acute model; format: in vivo, C57BL6 female mice
Experimental: Efficacy Evaluation in a Murine Model of Clostridium difficile-Associated Disease: Acute Model
The efficacy of compounds in suppressing C. diff infection was assessed in C57BL6 female mice. Mice were made vulnerable to C. diff. infection by administration of a cocktail of antibiotics (1% glucose, kanamycin (0.5 mg/mL), gentamicin (44 μg/mL), colistin (1062.5 U/mL), metronidazole (269 μg/mL), ciprofloxacin (156 μg/mL), ampicillin (100 μg/mL) and vancomycin (56 μg/mL)) in drinking water for a period of 9 days. 3 days prior to C. diff. infection, mice received a single dose of clindamycin (10 mg/kg) in a volume of 0.5 mL by oral gavage. After this antibiotic pre-treatment, mice received a challenge of approximately 4.5 log 10 viable spores of strain VPI 10463 (ATCC-43255) administered by oral gavage. Test compounds (bile acid) and placebo were administered in the chow or via oral gavage bid from day −2 through day 4 or 10 or 11. Gavage medium was aqueous, PBS-buffered 0.5% hydroxypropyl methylcellulose (HPMC) suspension. Efficacy of test articles was assessed by enumeration of survival of test animals over 12/15 days following C. diff, challenge and by comparison of mortality, disease severity scores and assessment of body weight against placebo treatment.
Results studies 1, 2 and 3 (using compound Example 1, dosed with 100 mg/kg daily dose via food or via gavage bid): […]

[6] = tested on: C. diff. strain BI1 infection; assay: Recurrence model hamster of C. diff. infection; format: in vivo, male Syrian hamster; settings: for survivors: repeated experiment (FIG. 5), 100% of vehicle animals died within 13 days
Experimental: The efficacy of compounds in suppressing recurrent C. diff infection was assessed in male Syrian hamster. Hamster were made vulnerable to C. diff. infection by administration 1 day prior to C. diff, infection of a single dose of clindamycin (30 mg/kg) by oral gavage. After this antibiotic pre-treatment, mice received a challenge of approximately 1560 viable spores of strain BI1 administered by oral gavage (day 0). After that hamster received 10 mg/kg vancomycin from day 0 until day 5. Test articles (bile acid) and placebo were administered via oral gavage bid from day 6 through day 15. Efficacy of test articles was assessed by enumeration of survival of test animals over 20 days following C. diff. challenge and by comparison of mortality, disease severity scores and assessment of body weight against placebo treatment.

[7] = ALT plasma concentration of mice after 5 days administration; format: in vivo; settings: 500 mg/kg for 5 days, mice (FIG. 1a, 1b); result in words
[8] = tested on: C. diff. spore germination; settings: reported in WO2010/062369, Table 3, cited from earlier work
[9] = Study 1, 0.1% in chow, Day −2 to Day 10
[10] = Study 1, 0.1% in chow, Day −2 to Day 10, n 10
[11] = Study 2, 0.1% in chow, Day −2 to Day 10
[12] = Study 2, 0.1% in chow, Day −2 to Day 10, n 10
[13] = Study 3, 0.1% in chow, Day −2 to Day 4
[14] = Study 3, 0.1% in chow, Day −2 to Day 4, n 10
[15] = Study 3, 0.1% in chow, Day −2 to Day 10
[16] = Study 3, as gavage, Day −2 to Day 4
[17] = Study 3, as gavage, Day −2 to Day 4, n 10
[18] = Study 3, as gavage, Day −2 to Day 10
[19] = Study 2 (so in the source), 0.1% in chow, Day −2 to Day 10
[20] = Study 2, as gavage, Day 5 to Day 11

## C[C@H](CCC(=O)O)[C@H]1CC[C@H]2[C@@H]3CC[C@@H]4C[C@@H](O)CC[C@]4(C)[C@H]3C[C@H](O)[C@]12C [iso-DCA, reference compound]
[1]
  MIC: > 250 µM

## [2H]C1([2H])C[C@@]2(C)[C@H](CC[C@@H]3[C@@H]2CC[C@]2(C)[C@@H]([C@H](C)CCC(=O)O)CC[C@@H]32)C([2H])([2H])C1([2H])O (stereo partly shown) [Example 3, 2,2,3,4,4-d5-Isolithocholic Acid]
[1]
  MIC: 7.8 to 15.6 µM (≈ 2.98 to 5.95 µg/mL)
[2]; 30 mg/kg
  survival of the animals: 60%

## C[C@H](CCC(=O)O)[C@H]1CC[C@H]2[C@@H]3CC[C@@H]4C[C@@H](O)CC[C@]4(C)[C@H]3CC[C@]12C [Example 1, Isolithocholic Acid]
[3]
  MIC: 16 µM (≈ 6.03 µg/mL)
[1]
  MIC: 15.6 µM (≈ 5.87 µg/mL)
[4]
  Vitamin D agonism: devoid of this Vitamin D agonism
[5]; [9]
  % Death: 0%
  % mouse days with total clinical score >0: 30%
  % mouse days with total clinical score >2: 0%
  Body weight day 12: 19.0
[5]; [10]
  Survived: 10
  Total Deaths: 0
[5]; [11]
  % Death: 0%
  % mouse days with total clinical score >0: 65%
  % mouse days with total clinical score >2: 0%
  Body weight day 12: 20.0
[5]; [12]
  Survived: 10
  Total Deaths: 0
[5]; [13]
  % Death: 20%
  Body weight day 12: 18.1
[5]; [14]
  Survived: 8
  Total Deaths: 2
[5]; [15]
  % mouse days with total clinical score >0: 72%
  % mouse days with total clinical score >2: 15%
[5]; [16]
  % Death: 0%
  Body weight day 12: 15.5 g
[5]; [17]
  Survived: 10
  Total Deaths: 0
[5]; [18]
  % mouse days with total clinical score >0: 30%
  % mouse days with total clinical score >2: 2%
[5]; first study (vehicle group 40% died)
  animals in the treatment groups survived: 100%
[5]; second study (vehicle group 30% died)
  animals in the treatment groups survived: 100%
[5]; third study (vehicle group 80% died)
  animals in the treatment groups survived: 80%
[2]; 100 mg/kg
  survival of the animals: 30%
[2]; FIG. 2, result in words
  efficacy (surviving rate), head-to-head comparison of iso-LCA and LCA: higher surviving rate
[2]; Study 1, 0.1% in chow, Day 5 to Day 11
  % Death: 0%
[2]; Study 1, 0.1% in chow
  Survived: 10
  Total Deaths: 0
[2]; [9]
  Body weight day 12: 18.4
[2]; [19]
  % mouse days with total clinical score >0: 30%
  % mouse days with total clinical score >2: 1%
[2]; [20]
  % Death: 0%
  % mouse days with total clinical score >0: 56%
  % mouse days with total clinical score >2: 0%
  Body weight day 12: 16.9 g
[2]; Study 2, as gavage
  Survived: 10
  Total Deaths: 0
[2]; vehicle group 70 to 80% died, result in words
  animals in the treatment groups died: none
[6]; 30 mg/kg
  survivors: 20%
[6]; 100 mg/kg
  survivors: 40%
[6]; dose-dependent manner (FIG. 5)
  animals protected: 20-40%
[6]; first experiment (FIG. 4), vehicle group 20% died, result in words
  animals in the treatment group died: none
[6]; result in words
  spores in caecum and colon of surviving animals: removed all spores from caecum and colon
[7]
  ALT-elevation (ALT plasma concentration): less pronounced

## C[C@H](CCC(=O)O)[C@H]1CC[C@H]2[C@@H]3CC[C@@H]4C[C@H](O)CC[C@]4(C)[C@H]3CC[C@]12C [LCA, lithocholic acid]
[7]
  ALT-elevation (ALT plasma concentration): confirm this described liability of ALT-elevation

## [2H][C@]1(O)CC[C@@]2(C)[C@H](CC[C@@H]3[C@@H]2CC[C@]2(C)[C@@H]([C@H](C)CCC(=O)O)CC[C@@H]32)C1 [Example 4, 3-d1-Isolithocholic Acid]
[1]
  MIC: 15.6 µM (≈ 5.89 µg/mL)

## C[C@H](CCC(=O)O)[C@H]1CC[C@H]2[C@@H]3CC[C@H]4C[C@@H](O)CC[C@]4(C)[C@H]3CC[C@]12C [Example 5, 3β-Hydroxy-5α-cholan-24-oic Acid]
[3]
  MIC: 8 µM (≈ 3.01 µg/mL)
[1]
  MIC: 3.9 µM (≈ 1.47 µg/mL)

## [2H]C1([2H])C[C@@]2(C)[C@H](CC[C@@H]3[C@@H]2CC[C@]2(C)[C@@H]([C@H](C)CCC(=O)O)CC[C@@H]32)C([2H])([2H])[C@H]1O [Example 2, 2,2,4,4-d4-Isolithocholic Acid]
[1]
  MIC: 7.8 to 15.6 µM (≈ 2.97 to 5.94 µg/mL)

## CC(=O)O[C@@H]1CC[C@@]2(C)[C@H](CC[C@@H]3[C@@H]2CC[C@]2(C)[C@@H]([C@H](C)CCC(=O)O)CC[C@@H]32)C1 [5β-cholanic acid 3α-ol acetate]
[8]
  effect on C. diff. spore germination (inhibition of germination): no effect
[8]; listed as 3-acetyl-LCA
  effect on C. diff. spore germination (inhibition of germination): not present

Source: patent US20210323995A1, “ISOLITHOCHOLIC ACID OR ISOALLOLITHOCHOLIC ACID AND DEUTERATED DERIVATIVES THEREOF FOR PREVENTING AND TREATING CLOSTRIDIUM DIFFICILE-ASSOCIATED DISEASES” (PHENEX PHARMACEUTICALS AG, priority 2018, published 2021)
